Measured values published in ChEMBL document CHEMBL5257045, “Antiparasitic Activity of Two Natural Terpenes from Salvia cuspidata against Leishmania amazonensis” (2023).
“And” between values parts separate entries of the source, which are not always exact repeats. Identical values can stand only once. The source made the active and inactive calls. The calls are words filed in the database; no cut-off is given here.

What was measured:
Leishmania amazonensis [1] = assay: Antileishmanial activity against Leishmania amazonensis MHOM/VE/84/MEL promastigotes assessed as parasite mortality at 14.3 uM measured after 1 day by dye exclusion method (reference value: 14.5 +/- 3.5); assay type: functional; conditions: 24 h
Leishmania amazonensis [2] = assay: Antileishmanial activity against Leishmania amazonensis MHOM/VE/84/MEL promastigotes assessed as parasite mortality at 14.3 uM measured after 2 day by dye exclusion method (reference value: 11.6 +/- 3.3); assay type: functional; conditions: 48 h
Leishmania amazonensis [3] = assay: Antileishmanial activity against Leishmania amazonensis promastigotes infected in BALB/c mouse assessed as reduction in RHLF lesion size at 1 mg/kg per day administered once a week for 4 weeks measured at 10 week; assay type: functional, organism-based
Leishmania amazonensis [4] = assay: Antileishmanial activity against Leishmania amazonensis MHOM/VE/84/MEL promastigotes assessed as parasite mortality at 4.3 uM measured after 2 day by dye exclusion method (reference value: 11.6 +/- 3.3); assay type: functional; conditions: 48 h
Leishmania amazonensis [5] = assay: Antileishmanial activity against Leishmania amazonensis MHOM/VE/84/MEL promastigotes assessed as parasite mortality at 29.2 uM measured after 1 day by dye exclusion method (reference value: 14.5 +/- 3.5); assay type: functional; conditions: 24 h
Leishmania amazonensis [6] = assay: Antileishmanial activity against Leishmania amazonensis MHOM/VE/84/MEL promastigotes assessed as parasite mortality at 29.2 uM measured after 2 day by dye exclusion method (reference value: 11.6 +/- 3.3); assay type: functional; conditions: 48 h
Leishmania amazonensis [7] = assay: Antileishmanial activity against Leishmania amazonensis promastigotes infected in BALB/c mouse assessed as reduction of splenic index at 1 mg/kg per day administered once a week for 4 weeks measured at 10 week; assay type: functional, organism-based
Leishmania amazonensis [8] = assay: Induction of ROS generation in Leishmania amazonensis promastigotes assessed as reduction in endogenous GSH level at 4.3 to 29.2 uM incubated for 3 hrs by absorbance based analysis; assay type: functional, organism-based; conditions: dose 4.3-29.2 µM
Leishmania amazonensis [9] = assay: Antileishmanial activity against Leishmania amazonensis promastigotes infected in BALB/c mouse assessed as reduction of IgG1 level at 1 mg/kg per day administered once a week for 4 weeks measured at 10 week by ELISA assay; assay type: functional, organism-based
Leishmania amazonensis [10] = assay: Antileishmanial activity against Leishmania amazonensis MHOM/VE/84/MEL promastigotes assessed as parasite mortality at 4.3 uM measured after 1 day by dye exclusion method (reference value: 14.5 +/- 3.5); assay type: functional; conditions: 24 h
Leishmania amazonensis [11] = assay: Antileishmanial activity against Leishmania amazonensis promastigotes infected in BALB/c mouse assessed as reduction of IgG level at 1 mg/kg per day administered once a week for 4 weeks measured at 10 week by ELISA assay; assay type: functional, organism-based
Leishmania amazonensis [12] = assay: Antileishmanial activity against Leishmania amazonensis promastigotes infected in BALB/c mouse assessed as reduction of parasite burden at 1 mg/kg per day administered once a week for 4 weeks measured at 10 week by limit dilution assay; assay type: functional, organism-based
Leishmania amazonensis [13] = assay: Induction of ROS generation in Leishmania amazonensis promastigotes at 4.3 to 29.2 uM incubated for 48 hrs followed by probe addition measured after 1 hr by H2DCFDA probe based fluorometry analysis; assay type: functional, organism-based; conditions: dose 4.3-29.2 µM, time 49.0 hrs
Leishmania amazonensis [14] = assay: Induction of ROS generation in Leishmania amazonensis promastigotes assessed as reduction in mitochondrial activity at 4.3 to 29.2 uM incubated for 48 hrs by MTT assay; assay type: functional, organism-based; conditions: dose 4.3-29.2 µM
Leishmania donovani = assay: Antileishmanial activity against Leishmania donovani MHOM/IN/83/AG83 promastigotes infected in BALB/c mouse assessed as reduction of parasite burden in spleen at 5 to 10 mg/kg per day; assay type: functional, organism-based; conditions: dose 5-10 mg/kg
Leishmania amazonensis [15] = assay: Antileishmanial activity against Leishmania amazonensis MHOM/VE/84/MEL promastigotes assessed as parasite mortality at 38.4 uM measured after 2 day by dye exclusion method (reference value: 11.6 +/- 3.3); assay type: functional; conditions: 48 h
Leishmania amazonensis [16] = assay: Antileishmanial activity against Leishmania amazonensis MHOM/VE/84/MEL promastigotes assessed as parasite mortality at 38.4 uM measured after 1 day by dye exclusion method (reference value: 14.5 +/- 3.5); assay type: functional; conditions: 24 h
Leishmania amazonensis [17] = assay: Antileishmanial activity against Leishmania amazonensis promastigotes infected in BALB/c mouse assessed as reduction of IgG level at 400 mg/kg per day, ip administered for 30 days measured at 10 week by ELISA assay; assay type: functional, organism-based; conditions: time 30.0 day
Leishmania amazonensis [18] = assay: Antileishmanial activity against Leishmania amazonensis promastigotes infected in BALB/c mouse assessed as reduction of parasite burden at 400 mg/kg per day, ip administered for 30 days measured at 10 week by limit dilution assay; assay type: functional, organism-based; conditions: time 30.0 day
Leishmania amazonensis [19] = assay: Antileishmanial activity against Leishmania amazonensis promastigotes infected in BALB/c mouse assessed as reduction in RHLF lesion size at 400 mg/kg per day, ip administered for 30 days; assay type: functional, organism-based; conditions: time 30.0 day
Leishmania amazonensis [20] = assay: Antileishmanial activity against Leishmania amazonensis promastigotes infected in BALB/c mouse assessed as wound closure at 400 mg/kg per day, ip administered for 30 days; assay type: functional, organism-based; conditions: time 30.0 day
Leishmania amazonensis [21] = assay: Antileishmanial activity against Leishmania amazonensis promastigotes infected in BALB/c mouse assessed as reduction of splenic index at 400 mg/kg per day, ip administered for 30 days measured at 10 week; assay type: functional, organism-based; conditions: time 30.0 day
Leishmania amazonensis [22] = assay: Antileishmanial activity against Leishmania amazonensis promastigotes infected in BALB/c mouse assessed as reduction of IgG1 level at 400 mg/kg per day, ip administered for 30 days measured at 10 week by ELISA assay; assay type: functional, organism-based; conditions: time 30.0 day

Molecule | mortality at 14.3 µM (Leishmania amazonensis [1]) | mortality at 14.3 µM (Leishmania amazonensis [2]) | Activity (Leishmania amazonensis [3]) | mortality at 4.3 µM (Leishmania amazonensis [4]) | mortality at 29.2 µM (Leishmania amazonensis [5]) | mortality at 29.2 µM (Leishmania amazonensis [6]) | Activity (Leishmania amazonensis [7]) | Activity (Leishmania amazonensis [8]) | Activity (Leishmania amazonensis [9]) | mortality (Leishmania amazonensis [10]) | Activity (Leishmania amazonensis [11]) | Activity (Leishmania amazonensis [12]) | Activity (Leishmania amazonensis [13]) | Activity (Leishmania amazonensis [14]) | also measured
CC(C)C1=C(O)C(=O)C2=C(C=C[C@H]3[C@]4(CCC[C@]3(C)C(=O)O4)C2)C1=O | 47% | 51.5% | Active | 26.5% | 65% | 77.5% | Active | Active | Active | 10% and 26.5% | Active | Active | Active | Active | 
C[C@@H]1CC[C@H]2[C@@H](C)C(=O)O[C@@H]3O[C@@]4(C)CC[C@@H]1[C@]32OO4 |  |  |  |  |  |  |  |  |  |  |  |  |  |  | Activity (Leishmania donovani): Active
CC(=O)N1CCN(c2ccc(OCC3COC(Cn4ccnc4)(c4ccc(Cl)cc4Cl)O3)cc2)CC1 (configuration not stated) [KETOCONAZOLE] |  |  |  |  |  |  |  |  |  |  |  |  |  |  | mortality at 38.4 µM (Leishmania amazonensis [15]): 79.4%; mortality at 38.4 µM (Leishmania amazonensis [16]): 48.5%
MEGLUMINE ANTIMONATE |  |  |  |  |  |  |  |  |  |  |  |  |  |  | Activity (Leishmania amazonensis [17]): Active; Activity (Leishmania amazonensis [18]): Active; Activity (Leishmania amazonensis [19]): Active; Activity (Leishmania amazonensis [20]): inactive; Activity (Leishmania amazonensis [21]): Active; Activity (Leishmania amazonensis [22]): Active
C[C@@]12CCC[C@]3(COC1=O)CC1=C(C=C[C@@H]32)C(=O)C=C(O)C1=O | 55% | 92% | Active | 87.5% | 96.5% | 98.5% | Active | Active | Active | 33.5% and 87.5% | Active | Active | Active | Active | 
